{
  "source": "ChEMBL document CHEMBL1150467",
  "about": "“The identification of a novel renin inhibitor of equivalent efficacy following oral or intravenous administration” (Bioorg Med Chem Lett, 1994)",
  "data": [
    {"biological_target": "T1, Renin (Homo sapiens, UniProt P00797)", "T1 sequence (P00797 whole entry)": "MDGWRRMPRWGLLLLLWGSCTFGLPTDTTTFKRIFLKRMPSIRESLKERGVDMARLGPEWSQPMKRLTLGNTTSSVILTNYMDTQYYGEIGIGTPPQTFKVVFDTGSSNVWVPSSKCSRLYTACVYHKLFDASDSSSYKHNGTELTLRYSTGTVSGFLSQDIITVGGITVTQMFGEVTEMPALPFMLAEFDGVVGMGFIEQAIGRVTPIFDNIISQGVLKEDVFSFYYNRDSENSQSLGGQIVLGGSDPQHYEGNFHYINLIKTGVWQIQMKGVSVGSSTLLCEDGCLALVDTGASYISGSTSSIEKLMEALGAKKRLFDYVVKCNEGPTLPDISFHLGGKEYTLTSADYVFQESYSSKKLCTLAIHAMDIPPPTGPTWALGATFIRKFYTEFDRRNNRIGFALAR", "test": "[…]", "assay_type": "cell-free, Plasma", "units": {"IC50": "nM"}, "values": [
      {"smiles": "CC(C)C[C@H](NC(=O)[C@H](Cc1ccccc1)NC(=O)CC1CS(=O)(=O)c2ccccc21)C(=O)N[C@@H](CC1CCCCC1)[C@@H](O)CC(=O)NCCn1ccnc1", "note": "(some centres not stated)", "IC50": 41},
      {"smiles": "CC(C)CCNC(=O)C[C@H](O)[C@H](CC1CCCCC1)NC(=O)[C@H](CC(C)C)NC(=O)[C@H](Cc1ccccc1)NC(=O)CC1CS(=O)(=O)c2ccccc21", "note": "(some centres not stated)", "IC50": 10},
      {"smiles": "CC(C)C[C@H](NC(=O)[C@H](Cc1ccccc1)NC(=O)CCCN1C(=O)CSc2ccncc21)C(=O)N[C@@H](CC1CCCCC1)[C@@H](O)CC(=O)NCCCn1ccnc1", "IC50": 14},
      {"smiles": "CC(C)C[C@H](NC(=O)[C@H](Cc1ccccc1)NC(=O)CC1CS(=O)(=O)c2ccccc21)C(=O)N[C@@H](CC1CCCCC1)[C@@H](O)CC(=O)NCCCc1cccnc1", "note": "(some centres not stated)", "IC50": 34},
      {"smiles": "CC(C)C[C@H](NC(=O)[C@H](Cc1ccccc1)NC(=O)CCN1C(=O)CSc2cnccc21)C(=O)N[C@@H](CC1CCCCC1)[C@@H](O)CC(=O)NCCCn1ccnc1", "IC50": 4},
      {"smiles": "CC(C)C[C@H](NC(=O)[C@H](Cc1ccccc1)NC(=O)CCN1C(=O)CS(=O)(=O)c2ccncc21)C(=O)N[C@@H](CC1CCCCC1)[C@@H](O)CC(=O)NCCCn1ccnc1", "IC50": 8},
      {"smiles": "CC(C)C[C@H](NC(=O)[C@H](Cc1ccccc1)NC(=O)CCN1C(=O)COc2ccncc21)C(=O)N[C@@H](CC1CCCCC1)[C@@H](O)CC(=O)NCCCn1ccnc1", "IC50": 20},
      {"smiles": "CC(C)C[C@H](NC(=O)[C@H](Cc1ccccc1)NC(=O)CC1CS(=O)(=O)c2ccccc21)C(=O)N[C@@H](CC1CCCCC1)[C@@H](O)CC(=O)NCCCN(C)C", "note": "(some centres not stated)", "IC50": 95},
      {"smiles": "CC(C)C[C@H](NC(=O)[C@H](Cc1ccccc1)NC(=O)CC1CS(=O)(=O)c2ccccc21)C(=O)N[C@@H](CC1CCCCC1)[C@@H](O)CC(=O)NCCCn1ccnc1", "note": "(some centres not stated)", "IC50": 12},
      {"smiles": "CC(C)C[C@H](NC(=O)[C@H](Cc1ccccc1)NC(=O)CC1CS(=O)(=O)c2ccccc21)C(=O)N[C@@H](CC1CCCCC1)[C@@H](O)CC(=O)NCCN1CCOCC1", "note": "(some centres not stated)", "IC50": 170},
      {"smiles": "CC(C)C[C@H](NC(=O)[C@H](Cc1ccccc1)NC(=O)CC1CS(=O)(=O)c2ccccc21)C(=O)N[C@@H](CC1CCCCC1)[C@@H](O)CC(=O)NCCCC(=O)O", "note": "(some centres not stated)", "IC50": 55},
      {"smiles": "CC(C)C[C@H](NC(=O)[C@H](Cc1ccccc1)NC(=O)CN1C(=O)CSc2ccncc21)C(=O)N[C@@H](CC1CCCCC1)[C@@H](O)CC(=O)NCCCn1ccnc1", "IC50": 38}
    ]}
  ]
}
